Test system: 967376-340-R-J2-PDC multicell spheroid viability
Assay: Anticancer human tumor 967376-340-R-J2-PDC patient-derived colon adenocarcinoma cell line growth inhibition [PI3K]
Conditions: for IC50: curve of first compound; for viability, T/C: stronger effect = lower value
Text: Combinatorial screen of targeted agents with the PI3K inhibitors inavolisib, alpelisib, duvelisib, and copanlisib in multi-cell type tumor spheroids
A high-throughput screen of multi-cell type tumor spheroids was designed to identify active combinations of targeted small molecules and PI3K pathway inhibitors. Complex spheroids include a stromal component modeled by human endothelial cells (HUVEC) and fibroblasts modeled by human mesenchymal stem cells (MSCs). The concentration ranges selected for each drug and investigational agent were based upon clinically achievable concentrations if the clinical Cmax of the agent was known.
Compounds. The drugs and investigational agents: inavolisib (NSC800729), alpelisib (NSC765974), duvelisib (NSC772469), copanlisib (NSC816437), ipatasertib (NSC767898), afuresertib (NSC778305), talazoparib (NSC767125), sapanisertib (NSC764658), selumetinib (NSC741078), tovorafenib (DAY101, NSC766906), vemurafenib (NSC761431), ravoxertinib (NSC781343), sotorasib (NSC818433), MRTX1133 (NSC 836407), abemaciclib (NSC 768073), palbociclib (NSC758247), venetoclax (NSC 766270), SY5609 (NSC837396), enzalutamide (NSC755605), and darolutamide (NSC825331), were obtained from the National Cancer Institute (NCI) Developmental Therapeutics Program Chemical Repository. The FDA-approved anticancer drug set is available from the NCI Developmental Therapeutics Program. […] The stock solutions were prepared in dimethyl sulfoxide (DMSO, Sigma-Aldrich, St. Louis, MO, cat. D2650) at 800-fold the tested concentration and stored at -70 degrees C prior to their use. All drugs and investigational agents were tested over a range starting from a high concentration at or near the clinical Cmax and decreasing in half-log increments. If the clinical Cmax for an agent had not been determined, the highest concentration tested was 10 microM.
Cell Culture. All cells were maintained in an incubator at 37 degrees C and 5% CO2 with 95% humidity. The PDC lines were cultured according to standard operating procedures established by the NCI PDMR (https://pdmr.cancer.gov/sops/default.htm). All PDCs were thawed and cultured in Matrigel-coated flasks prepared with a working solution of 1X Ham's F-12 nutrient mix, without supplementation (Invitrogen, Waltham, MA, cat. 11765054), 100 U/mL penicillin-streptomycin (Invitrogen, cat. 15140122), and 2.5% Matrigel (Corning Inc., Corning, NY, cat. 354248) for the first three passages. The 354836-022-R-J1-PDC, 475296-252-R-J1-PDC, and 997726-040-R-J2-PDC lines were cultured in 6A media, which includes advanced DMEM/F-12 (Thermo Fisher Scientific, cat. 12634028), 10 mM HEPES (Thermo Fisher Scientific, cat. 15630080), 1X GlutaMAX supplement (Thermo Fisher Scientific, cat. 35050061), 0.1 mg/mL primocin (InvivoGen, San Diego, CA, cat. ant-pm-2), 10% defined fetal bovine serum, heat inactivated (HyClone Laboratories Inc., Logan, UT, cat. SH30070.03HI), 50% L-WRN conditioned media (ATCC, cat. CRL-3276), 1.25 mM N-Acetyl-L-cysteine (Sigma-Aldrich, cat. A9165), 10 mM nicotinamide (Sigma-Aldrich, cat. N0636), 1X B-27 supplement (Thermo Fisher Scientific, cat. 17504044), 1X N-2 supplement (Thermo Fisher Scientific, cat. 17502048), and 10 microM Y-27632 dihydrochloride (Tocris Bioscience, Bristol, United Kingdom, cat. 1254). The 624824-186-R-J2-PDC line was cultured in 6C/Colon 1B media, which includes all 6A media components plus 50 ng/mL human EGF recombinant protein (Thermo Fisher Scientific, cat. PHG0311). […]

[1] = second compound 0.00316 µM, first compound 0.0316 µM
[2] = second compound 0.00316 µM, first compound 0.1 µM
[3] = second compound 0.01 µM, first compound 0.0316 µM
[4] = second compound 0.01 µM, first compound 0.1 µM
[5] = second compound 0.0316 µM, first compound 0.0316 µM
[6] = second compound 0.0316 µM, first compound 0.1 µM
[7] = second compound 0.1 µM, first compound 0.0316 µM
[8] = second compound 0.1 µM, first compound 0.1 µM
[9] = second compound 0.316 µM, first compound 0.0316 µM
[10] = second compound 0.316 µM, first compound 0.1 µM
[11] = second compound 1 µM, first compound 0.0316 µM
[12] = second compound 1 µM, first compound 0.1 µM
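Note: spheroids exposed to agents for 7 days before read-out.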
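Throughout, for viability, T/C: luminescence used as surrogate of cell viability.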

`CC(=O)c1c(C)c2cnc(Nc3ccc(N4CCNCC4)cn3)nc2n(C2CCCC2)c1=O` + CC(Nc1ccc2c(c1)OCCn1cc(N3C(=O)OCC3C(F)F)nc1-2)C(N)=O was tested. Which IC50 (second compound 0.00316 µM) did it give?
Its IC50 is over 0.1 µM.

And the IC50 (second compound 0.01 µM)?
The IC50 was over 0.1 µM.

And the IC50 (second compound 0.0316 µM)?
Its IC50 is over 0.1 µM.

What about the IC50 (second compound 0.1 µM) of the same compound?
The IC50 was over 0.1 µM.

And the IC50 (second compound 0.316 µM)?
Its IC50 is over 0.1 µM.

What about the IC50 (second compound 1 µM) of the same compound?
Its IC50 is over 0.1 µM.

What about the viability, T/C (second compound 0.00316 µM, first compound 0.000316 µM) of the same compound?
The viability, T/C was 111%.

And the viability, T/C (second compound 0.00316 µM, first compound 0.001 µM)?
Its viability, T/C is 79.3%.

What about the viability, T/C (second compound 0.00316 µM, first compound 0.00316 µM) of the same compound?
Its viability, T/C is 93.8%.

And the viability, T/C (second compound 0.00316 µM, first compound 0.01 µM)?
Its viability, T/C is 102%.

And the viability, T/C [1]?
Its viability, T/C is 114%.

And the viability, T/C [2]?
The viability, T/C was 87.4%.

And the viability, T/C (second compound 0.01 µM, first compound 0.000316 µM)?
The viability, T/C was 100%.

And the viability, T/C (second compound 0.01 µM, first compound 0.001 µM)?
The viability, T/C was 101%.

What about the viability, T/C (second compound 0.01 µM, first compound 0.00316 µM) of the same compound?
The viability, T/C was 96.4%.

What about the viability, T/C (second compound 0.01 µM, first compound 0.01 µM) of the same compound?
Its viability, T/C is 93%.

And the viability, T/C [3]?
The viability, T/C was 94.7%.

And the viability, T/C [4]?
The viability, T/C was 75.8%.

What about the viability, T/C (second compound 0.0316 µM, first compound 0.000316 µM) of the same compound?
Its viability, T/C is 92.7%.

What about the viability, T/C (second compound 0.0316 µM, first compound 0.001 µM) of the same compound?
Its viability, T/C is 88.4%.

What about the viability, T/C (second compound 0.0316 µM, first compound 0.00316 µM) of the same compound?
Its viability, T/C is 70.7%.

And the viability, T/C (second compound 0.0316 µM, first compound 0.01 µM)?
Its viability, T/C is 117%.

What about the viability, T/C [5] of the same compound?
Its viability, T/C is 91.3%.

And the viability, T/C [6]?
Its viability, T/C is 84.7%.

And the viability, T/C (second compound 0.1 µM, first compound 0.000316 µM)?
The viability, T/C was 87.9%.

And the viability, T/C (second compound 0.1 µM, first compound 0.001 µM)?
Its viability, T/C is 78.8%.

And the viability, T/C (second compound 0.1 µM, first compound 0.00316 µM)?
The viability, T/C was 96.3%.

And the viability, T/C (second compound 0.1 µM, first compound 0.01 µM)?
The viability, T/C was 64.3%.

What about the viability, T/C [7] of the same compound?
Its viability, T/C is 90.2%.

What about the viability, T/C [8] of the same compound?
Its viability, T/C is 79.7%.

And the viability, T/C (second compound 0.316 µM, first compound 0.000316 µM)?
The viability, T/C was 64.3%.

What about the viability, T/C (second compound 0.316 µM, first compound 0.001 µM) of the same compound?
Its viability, T/C is 74.7%.

And the viability, T/C (second compound 0.316 µM, first compound 0.00316 µM)?
The viability, T/C was 72.8%.

What about the viability, T/C (second compound 0.316 µM, first compound 0.01 µM) of the same compound?
The viability, T/C was 72.1%.

What about the viability, T/C [9] of the same compound?
The viability, T/C was 72.9%.

And the viability, T/C [10]?
Its viability, T/C is 67.8%.

What about the viability, T/C (second compound 1 µM, first compound 0.000316 µM) of the same compound?
The viability, T/C was 65%.

What about the viability, T/C (second compound 1 µM, first compound 0.001 µM) of the same compound?
The viability, T/C was 64.2%.

And the viability, T/C (second compound 1 µM, first compound 0.00316 µM)?
The viability, T/C was 77.8%.

What about the viability, T/C (second compound 1 µM, first compound 0.01 µM) of the same compound?
Its viability, T/C is 55.7%.

And the viability, T/C [11]?
The viability, T/C was 61.6%.

What about the viability, T/C [12] of the same compound?
Its viability, T/C is 50.9%.

What does the source list for `CNC(=O)c1ccc(N2C(=S)N(c3ccc(C#N)c(C(F)(F)F)c3)C(=O)C2(C)C)cc1F` + CC(Nc1ccc2c(c1)OCCn1cc(N3C(=O)OCC3C(F)F)nc1-2)C(N)=O?
IC50 (second compound 0.00316 µM): > 10 µM; IC50 (second compound 0.01 µM): > 10 µM; IC50 (second compound 0.0316 µM): > 10 µM; IC50 (second compound 0.1 µM): > 10 µM; IC50 (second compound 0.316 µM): > 10 µM; IC50 (second compound 1 µM): > 10 µM; viability, T/C [1]: 90.3%; viability, T/C [2]: 107%; viability, T/C (second compound 0.00316 µM, first compound 0.316 µM): 93.1%; viability, T/C (second compound 0.00316 µM, first compound 1 µM): 93.2%; viability, T/C (second compound 0.00316 µM, first compound 3.16 µM): 112%; viability, T/C (second compound 0.00316 µM, first compound 10 µM): 161%; viability, T/C [3]: 102%; viability, T/C [4]: 97.8%; viability, T/C (second compound 0.01 µM, first compound 0.316 µM): 94.3%; viability, T/C (second compound 0.01 µM, first compound 1 µM): 89.5%; viability, T/C (second compound 0.01 µM, first compound 3.16 µM): 106%; viability, T/C (second compound 0.01 µM, first compound 10 µM): 136%; viability, T/C [5]: 83.1%; viability, T/C [6]: 107%; viability, T/C (second compound 0.0316 µM, first compound 0.316 µM): 94.1%; viability, T/C (second compound 0.0316 µM, first compound 1 µM): 76.7%; viability, T/C (second compound 0.0316 µM, first compound 3.16 µM): 100%; viability, T/C (second compound 0.0316 µM, first compound 10 µM): 99.5%; viability, T/C [7]: 72.4%; viability, T/C [8]: 73.1%; viability, T/C (second compound 0.1 µM, first compound 0.316 µM): 73.5%; viability, T/C (second compound 0.1 µM, first compound 1 µM): 81.1%; viability, T/C (second compound 0.1 µM, first compound 3.16 µM): 77.4%; viability, T/C (second compound 0.1 µM, first compound 10 µM): 81%; viability, T/C [9]: 60.4%; viability, T/C [10]: 60.6%; viability, T/C (second compound 0.316 µM, first compound 0.316 µM): 72.5%; viability, T/C (second compound 0.316 µM, first compound 1 µM): 66.5%; viability, T/C (second compound 0.316 µM, first compound 3.16 µM): 62.1%; viability, T/C (second compound 0.316 µM, first compound 10 µM): 67.5%; viability, T/C [11]: 57.3%; viability, T/C [12]: 66%; viability, T/C (second compound 1 µM, first compound 0.316 µM): 62.7%; viability, T/C (second compound 1 µM, first compound 1 µM): 60.8%; viability, T/C (second compound 1 µM, first compound 3.16 µM): 61.6%; viability, T/C (second compound 1 µM, first compound 10 µM): 67.5%
